Assay results: patent US6896900B2, “β-L-2'-deoxy-nucleosides for the treatment of HIV infection” (Emory University, priority 1998, dated 2005)

What was measured:
HIV = assay: Anti-HIV activity in CEM cells; format: cell-based; conditions: for EC50: Human immunodeficiency virus 1, CCRF-CEM, read-out: Antiviral Activity EC50
Procedure: (§1) The anti-HIV activity of L-2′-A-5-FddC and L-3′-A-5-FddC was tested in CEM and PBM cells.

[1] = Cytotoxicity in CEM cells; format: cell-based; conditions: human
HIV-1 (strain LAV) = assay: Inhibition of HIV-1 replication in human PBM cells (reverse transcriptase readout); format: cell-based; conditions: for EC50: Human immunodeficiency virus 1, PBMC, 144 h, HIV-1 strain LAV, day 6, read-out: Antiviral Activity EC50
Procedure: Antiviral compositions can be screened in vitro for inhibition of HIV by various experimental techniques. One such technique involves measuring the inhibition of viral replication in human peripheral blood mononuclear (PBM) cells. The amount of virus produced is determined by measuring the quantity of virus-coded reverse transcriptase (RT), an enzyme found in retroviruses, that is present in the cell culture medium.
Three-day-old phytohemagglutinin-stimulated PBM cells (10^6 cells/ml) from hepatitis B and HIV-1 seronegative healthy donors were infected with HIV-1 (strain LAV) at a concentration of about 100 times the 50% tissue culture infectious done (TICD 50) per ml and cultured in the presence and absence of various concentrations of antiviral compounds.
Approximately one hour after infection, the medium, with the compound to be tested (2 times the final concentration in medium) or without compound, was added to the flasks (5 ml; final volume 10 ml). AZT was used as a positive control. The cells were exposed to the virus (about 2×10^5 dpm/ml, as determined by reverse transcriptase assay ) and then placed in a CO2 incubator. HIV-1 (strain LAV) was obtained from the Centers for Disease Control, Atlanta, Ga. The methods used for culturing the PBM cells, harvesting the virus and determining the reverse transcriptase activity were those described by McDougal et al. (J. Immun. Meth. 76, 171-183, 1985) and Spira et al., (J. Clin. Meth. 25, 97-99, 1987), except that fungizone was not included in the medium (see Schinazi, et al., Antimicrob. Agents Chemother. 32, 1784-1787 (1988); Antimicrob. Agents Chemother., 34: 1061-1067 (1990)).
On day 6, the cells and supernatant were transferred to a 15 ml tube and centrifuged at about 900 g for 10 minutes. Five ml of supernatant were removed and the virus was concentrated by centrifugation at 40,000 rpm for 30 minutes (Beckman 70.1 Ti rotor). The solubilized virus pellet was processed for determination of the levels of reverse transcriptase. Results are expressed in dpm/ml of sampled supernatant. Virus from smaller volumes of supernatant (1 ml) can also be concentrated by centrifugation prior to solubilization and determination of reverse transcriptase levels.
The median effective (EC50) concentration was determined by the median effect method (Antimicrob. Agents Chemother. 30, 491-498 (1986). Briefly, the percent inhibition of virus, as determined from measurements of reverse transcriptase, is plotted versus the micromolar concentration of compound. The EC50 is the concentration of compound at which ther is a 50% inhibition of viral growth.
as §1

[2] = Cytotoxicity in uninfected human PBM cells (trypan blue cell count); format: cell-based; conditions: mitogen-stimulated uninfected human PBM cells, six days
Procedure: Mitogen stimulated uninfected human PBM cells (3.8×10^5 cells/ml) were cultured in the presence and absence of drug under similar conditions as those used for the antiviral assay described above. The cells were counted after six days using a hemacytometer and the trypan blue exclusion method, as described by Schinazi et al., Antimicrobial Agents and Chemotherapy, 22(3), 499 (1982). The IC50 is the concentration of compound which inhibits 50% of normal cell growth. The anti-HIV activity of L-2′-A-5-FddC and L-3′-A-5-FddC was tested in CEM and PBM cells.

Row | EC50 (HIV) [nM] | EC50 (HIV-1 (strain LAV)) [nM] | melting point [°C] | Structure (SMILES) | Selectivity Index IC50/EC50 (HIV) | IC50 [1] [nM] | Selectivity Index IC50/EC50 (HIV-1 (strain LAV)) | IC50 at 6 days [2] [nM]
1 | 290 | 50 | – | [N-]=[N+]=NC1C[C@@H](n2cc(F)c(N)nc2=O)O[C@H]1CO (stereo partly drawn) [L-3′-A-5-FddC, β-L-(3′-azido)-2′,3′-dideoxy-5-fluorocytosine] | >344 | > 100000 | >2647 | > 100000
2 | 3900 | 1000 | 219 to 221 | [N-]=[N+]=NC1C[C@H](CO)O[C@@H]1n1cc(F)c(N)nc1=O (stereo partly drawn) [L-2′-A-5-FddC, β-L-(2′-azido)-2′,3′-dideoxy-5-fluorocytosine] | >30 | > 100000 | >100 | > 100000
